System: A375P cells
Assay: Anti-proliferative activity on A375P cell line (MTT assay)
Assay type: cell-based
Conditions: A375P human melanoma cell line
Procedure: A375P cells were purchased from American Type Culture Collection (ATCC, Rockville, Md., US) and maintained in DMEM medium (Welgene, Daegu, Korea) supplemented with 10% FBS (Welgene) and 1% penicillin/streptomycin (Welgene) in a humidified atmosphere with 5% CO2 at 37° C. The A375P cells were taken from culture substrate with 0.05% trypsin-0.02% EDTA and plated at a density of 5×10^3 cells/well in 96 well plates and then incubated at 37° C. for 24 h in a humidified atmosphere with 5% CO2 prior to treatment of various concentration (three fold serial dilution, 12 points) of test compounds. The A357P cell viability was assessed by the conventional 3-(4,5-dimethylthiazol-2-yl)-2,5-diphenyltetrazolium bromide (MTT) reduction assay. MTT assays were carried out with CellTiter 96 (Promega) according to the manufacturer's instructions.
After 1 day, 0.5 μl the representative compounds of the examples were added thereto. The representative compounds of the examples were prepared by three fold serial dilution of 10 mM stock solution in DMSO, 12 point (final conc. DMSO 0.5%). Then, 15 μl dye was added in each well. After 2 h, 100 μl stop solution was added each well. After 24 h, absorbance was measured. The absorbance at 590 nm was recorded using EnVision2103 (PerkinElmer; Boston, Mass., US). The IC50 value was calculated using GraphPad Prism 4.0 software.

GI50 | Compound
< 10 µM | CCOC(=O)c1n[nH]c2cc(-c3ccc(NC(=O)c4cccc(C(F)(F)F)c4)cc3)ccc12 [Example 2, ethyl 6-(4-(3-(trifluoromethyl)benzamido)phenyl)-1H-indazole-3-carboxylate]
< 10 µM | CCOC(=O)c1n[nH]c2cc(-c3ccc(NC(=O)c4ccnnc4)cc3)ccc12 [Example 10, ethyl 6-(4-(pyridazine-4-carboxamido)phenyl)-1H-indazole-3-carboxylate]
< 10 µM | CCOC(=O)c1n[nH]c2cc(-c3ccc(NC(=O)Cc4ccc(OC)c(OC)c4)cc3)ccc12 [Example 11, ethyl 6-(4-(2-(3,4-dimethoxyphenyl)acetamido)phenyl)-1H-indazole-3-carboxylate]
< 10 µM | CCOC(=O)c1n[nH]c2cc(-c3ccc(NC(=O)c4ccncc4Cl)cc3)ccc12 [Example 13, ethyl 6-(4-(3-chloroisonicotinamido)phenyl)-1H-indazole-3-carboxylate]
< 10 µM | CCOC(=O)c1n[nH]c2cc(-c3ccc(NC(=O)c4ccc(OC)c5ccc(OC)cc45)cc3)ccc12 [Example 15, ethyl 6-(4-(4,7-dimethoxy-1-naphthamido)phenyl)-1H-indazole-3-carboxylate]
< 10 µM | CCOC(=O)c1n[nH]c2cc(-c3ccc(NC(=O)c4ccc(-c5cc(C(F)(F)F)ccc5Cl)o4)cc3)ccc12 [Example 16, ethyl 6-(4-(5-(2-chloro-5-(trifluoromethyl)phenyl)furan-2-carboxamido)phenyl)-1H-indazole-3-carboxylate]
< 10 µM | CCOC(=O)c1n[nH]c2cc(-c3ccc(NC(=O)c4ccc(OC5CCN(C)CC5)c(C(F)(F)F)c4)cc3)ccc12 [Example 19, ethyl 6-(4-(4-(1-methylpiperidin-4-yloxy)-3-(trifluoromethyl)benzamido)phenyl)-1H-indazole-3-carboxylate]
< 10 µM | CCOC(=O)c1n[nH]c2cc(-c3ccc(NC(=O)Nc4ccc(Cl)c(Cl)c4)cc3)ccc12 [Example 20, ethyl 6-(4-(3-(3,4-dichlorophenyl)ureido)phenyl)-1H-indazole-3-carboxylate]
< 10 µM | CCOC(=O)c1n[nH]c2cc(-c3ccc(NC(=O)Nc4cc(C(F)(F)F)cc(C(F)(F)F)c4)cc3)ccc12 [Example 22, ethyl 6-(4-(3-(3,5-bis(trifluoromethyl)phenyl)ureido)phenyl)-1H-indazole-3-carboxylate]
< 10 µM | CCOC(=O)c1n[nH]c2cc(-c3ccc(NC(=O)Nc4cccc(C(F)(F)F)c4)cc3)ccc12 [Example 23, ethyl 6-(4-(3-(3-(trifluoromethyl)phenyl)ureido)phenyl)-1H-indazole-3-carboxylate]
< 10 µM | CNC(=O)c1n[nH]c2cc(-c3ccc(NC(=O)c4ccc(-c5ccc(OC)cc5)o4)cc3)ccc12 [Example 25, 6-(4-(5-(4-methoxyphenyl)furan-2-carboxamido)phenyl)-N-methyl-1H-indazole-3-carboxamide]
< 10 µM | CNC(=O)c1n[nH]c2cc(-c3ccc(NC(=O)c4ccc(Br)s4)cc3)ccc12 [Example 26, 6-(4-(5-bromothiophene-2-carboxamido)phenyl)-N-methyl-1H-indazole-3-carboxamide]
< 10 µM | CNC(=O)c1n[nH]c2cc(-c3ccc(NC(=O)c4cc5ccccc5s4)cc3)ccc12 [Example 27, 6-(4-(benzo[b]thiophene-2-carboxamido)phenyl)-N-methyl-1H-indazole-3-carboxamide]
< 10 µM | O=C(Nc1ccc(-c2ccc3c(C(=O)NCCN4CCOCC4)n[nH]c3c2)cc1)c1cccc(C(F)(F)F)c1 [Example 30, N-(2-morpholinoethyl)-6-(4-(3-(trifluoromethyl)benzamido)phenyl)-1H-indazole-3-carboxamide]
< 10 µM | O=C(Nc1ccc(-c2ccc3c(C(=O)NCCN4CCOCC4)n[nH]c3c2)cc1)c1ccc(Br)s1 [Example 31, 6-(4-(5-bromothiophene-2-carboxamido)phenyl)-N-(2-morpholinoethyl)-1H-indazole-3-carboxamide]
< 10 µM | O=C(Nc1ccc(-c2ccc3c(C(=O)NCCN4CCOCC4)n[nH]c3c2)cc1)c1cc2ccccc2s1 [Example 32, 6-(4-(benzo[b]thiophene-2-carboxamido)phenyl)-N-(2-morpholinoethyl)-1H-indazole-3-carboxamide]
< 10 µM | Cc1cc(C(=O)Nc2ccc(-c3ccc4c(C(=O)NCCN5CCOCC5)n[nH]c4c3)cc2)c(C)o1 [Example 33, 6-(4-(2,5-dimethylfuran-3-carboxamido)phenyl)-N-(2-morpholinoethyl)-1H-indazole-3-carboxamide]

GI50 | Compound
< 10 µM | COc1ccc(-n2ncc(C(=O)Nc3ccc(-c4ccc5c(C(=O)NCCN6CCOCC6)n[nH]c5c4)cc3)c2C(F)(F)F)cc1 [Example 34, 6-(4-(1-(4-methoxyphenyl)-5-(trifluoromethyl)-1H-pyrazole-4-carboxamido)phenyl)-N-(2-morpholinoethyl)-1H-indazole-3-carboxamide]
< 10 µM | O=C(Nc1ccc(-c2ccc3c(C(=O)Nc4cccc(C(F)(F)F)c4)n[nH]c3c2)cc1)c1ccc(Br)s1 [Example 35, 6-(4-(5-bromothiophene-2-carboxamido)phenyl)-N-(3-(trifluoromethyl)phenyl)-1H-indazole-3-carboxamide]
< 10 µM | O=C(Nc1ccc(-c2ccc3c(C(=O)NCCN4CCOCC4)n[nH]c3c2)cc1)Nc1ccc(Cl)c(Cl)c1 [Example 36, 6-(4-(3-(3,4-dichlorophenyl)ureido)phenyl)-N-(2-morpholinoethyl)-1H-indazole-3-carboxamide]
< 10 µM | CNC(=O)c1n[nH]c2cc(-c3ccc(NC(=O)c4cc(-n5cnc(C)c5)cc(C(F)(F)F)c4)cc3)ccc12 [Example 39, N-methyl-6-(4-(3-(4-methyl-1H-imidazol-1-yl)-5-(trifluoromethyl)benzamido)phenyl)-1H-indazole-3-carboxamide]
< 10 µM | CNC(=O)c1n[nH]c2cc(-c3ccc(NC(=O)c4ccc(OC5CCN(C)CC5)c(C(F)(F)F)c4)cc3)ccc12 [Example 40, N-methyl-6-(4-(4-(1-methylpiperidin-4-yloxy)-3-(trifluoromethyl)benzamido)phenyl)-1H-indazole-3-carboxamide]
< 10 µM | COC(=O)c1n[nH]c2ccc(-c3ccc(NC(=O)Nc4ccc(Cl)c(C(F)(F)F)c4)cc3)cc12 [Example 43, methyl 5-(4-(3-(4-chloro-3-(trifluoromethyl)phenyl)ureido)phenyl)-1H-indazole-3-carboxylate]
< 10 µM | CCOC(=O)c1n[nH]c2cc(-c3cccc(NC(=O)c4cc(C)on4)c3)ccc12 [Example 46, ethyl 6-(3-(5-methylisoxazole-3-carboxamido)phenyl)-1H-indazole-3-carboxylate]
< 10 µM | CCOC(=O)c1n[nH]c2cc(-c3cccc(NC(=O)c4cc5ccccc5s4)c3)ccc12 [Example 47, ethyl 6-(3-(benzo[b]thiophene-2-carboxamido)phenyl)-1H-indazole-3-carboxylate]
< 10 µM | CCOC(=O)c1n[nH]c2cc(-c3cccc(NC(=O)c4ccc(Br)s4)c3)ccc12 [Example 49, ethyl 6-(3-(5-bromothiophene-2-carboxamido)phenyl)-1H-indazole-3-carboxylate]
< 10 µM | COC(=O)c1n[nH]c2cc(-c3cccc(NC(=O)c4cc(N5CCOCC5)cc(C(F)(F)F)c4)c3)ccc12 [Example 52, methyl 6-(3-(3-morpholino-5-(trifluoromethyl)benzamido)phenyl)-1H-indazole-3-carboxylate]
< 10 µM | CCOC(=O)c1n[nH]c2cc(-c3cccc(NC(=O)Nc4ccc(Cl)c(Cl)c4)c3)ccc12 [Example 55, ethyl 6-(3-(3-(3,4-dichlorophenyl)ureido)phenyl)-1H-indazole-3-carboxylate]
< 10 µM | COC(=O)c1n[nH]c2cc(-c3cccc(NC(=O)Nc4ccc(C)cc4C)c3)ccc12 [Example 56, methyl 6-(3-(3-(2,4-dimethylphenyl)ureido)phenyl)-1H-indazole-3-carboxylate]
< 10 µM | O=C(Nc1cccc(-c2ccc3c(C(=O)NCCN4CCOCC4)n[nH]c3c2)c1)c1cc(N2CCOCC2)cc(C(F)(F)F)c1 [Example 59, 6-(3-(3-morpholino-5-(trifluoromethyl)benzamido)phenyl)-N-(2-morpholinoethyl)-1H-indazole-3-carboxamide]
< 10 µM | O=C(Nc1cccc(-c2ccc3c(C(=O)NCCN4CCOCC4)n[nH]c3c2)c1)Nc1cccc(Cl)c1Cl [Example 60, 6-(3-(3-(2,3-dichlorophenyl)ureido)phenyl)-N-(2-morpholinoethyl)-1H-indazole-3-carboxamide]
< 10 µM | CCNC(=O)c1n[nH]c2cc(-c3cccc(NC(=O)Nc4cccc(Cl)c4Cl)c3)ccc12 [Example 61, 6-(3-(3-(2,3-dichlorophenyl)ureido)phenyl)-N-ethyl-1H-indazole-3-carboxamide]
< 10 µM | CCNC(=O)c1n[nH]c2cc(-c3cccc(NC(=O)Nc4ccc(Cl)c(Cl)c4)c3)ccc12 [Example 62, 6-(3-(3-(3,4-dichlorophenyl)ureido)phenyl)-N-ethyl-1H-indazole-3-carboxamide]
< 10 µM | CCNC(=O)c1n[nH]c2cc(-c3cccc(NC(=O)Nc4ccc(C)cc4C)c3)ccc12 [Example 63, 6-(3-(3-(2,4-dimethylphenyl)ureido)phenyl)-N-ethyl-1H-indazole-3-carboxamide]
